# Source: patent US20240002491A1, “METHODS FOR SELECTING PATIENTS FOR TREATMENT WITH AN NGF ANTAGONIST” (Regeneron Pharmaceuticals, Inc., priority 2022, published 2024)
# Key:
# [1] = test system: adults with moderate-to-severe chronic pain associated with osteoarthritis (OA) of the knee or hip; assay: FACT LTS (NCT02683239, R475-PN-1523) efficacy substudy; type: in vivo, human; settings: fasinumab 1 mg Q8W and 1 mg Q4W groups
# Source text: (§1) NCT02683239 (R475-PN-1523, or “FACT LTS”), NCT03161093 (R475-OA-1611, or “FACT OA1”), and NCT03304379 (R475-OA-1688, or “FACT OA2”) each were Phase 3 trials evaluating fasinumab in adults with moderate-to-severe chronic pain associated with osteoarthritis (OA) of the knee or hip. All three of these trials enrolled patients with OA of the knee or hip who had inadequate pain relief with acetaminophen and were intolerant to or had inadequate pain relief with opioids, or were unwilling or unable to take opioids. Complete inclusion and exclusion criteria for the trials are described at clinicaltrials.gov/ct2/show/NCT03161093, clinicaltrials.gov/ct2/show/NCT03304379, and clinicaltrials.gov/ct2/show/NCT02683239.
# The FACT LTS study evaluated the long-term safety and tolerability of fasinumab, including adverse events of special interest such as joint damage (e.g. arthropathies), compared with placebo. A total of 2,411 patients were randomized to one of the following treatment arms: (1) fasinumab 1 mg subcutaneous (SC) every 8 weeks (Q8W); (2) fasinumab 1 mg SC every 4 weeks (Q4W); or (3) matching placebo SC Q4W. This study also included a substudy evaluating the efficacy of fasinumab in these same patient groups (n=215 in fasinumab 1 mg Q8W, n=217 in fasinumab 1 mg Q4W, n=214 in placebo).
# [2] = test system: adults with moderate-to-severe chronic pain associated with osteoarthritis (OA) of the knee or hip; assay: FACT OA1 (NCT03161093, R475-OA-1611) Phase 3 trial, WOMAC pain and physical function; type: in vivo, human
# Source text: as §1
# (§2) FACT OA1 and FACT OA2 assessed the efficacy of fasinumab in comparison to nonsteroidal anti-inflammatory drugs (NSAIDs; naproxen, diclofenac, or celecoxib) for treatment of OA. FACT OA1 includes results from a total of 1,801 patients randomized to one of four treatment arms: fasinumab 1 mg SC once every 8 weeks (Q8W) (n=304), fasinumab 1 mg SC once every 4 weeks (Q4W) (n=639), naproxen 500 mg twice daily (n=644), or placebo (n=214). In FACT OA2, patients were randomized into one of six treatment groups: fasinumab 1 mg SC once every 4 weeks (Q4W), fasinumab 3 mg SC once every 4 weeks (Q4W), fasinumab 6 mg SC once every 8 weeks (Q8W), celecoxib 200 mg once daily, diclofenac 75 mg twice daily, or placebo. While the FACT OA2 trial was still ongoing, enrollment into the fasinumab 3 mg Q4W and 6 mg Q8W groups was stopped for safety considerations; patients enrolled in those dose regimens discontinued study drug and entered the post-treatment follow-up period.
# (§3) Fasinumab patients in both trials also reported improvements in their pain and physical function (WOMAC score) compared to those treated with the highest-approved prescription doses of NSAIDS.
# alkaline phosphatase [3] = settings: DA patients at all doses; by 16 weeks
# Source text: Three non-overlapping subgroups are shown: patients without AA, patients with DA and patients with non-DA AAs.
# [4] = test system: adults with moderate-to-severe chronic pain associated with osteoarthritis (OA) of the knee or hip; assay: FACT OA2 (NCT03304379, R475-OA-1688) Phase 3 trial, WOMAC pain and physical function; type: in vivo, human
# Source text: as §1, §2, §3
# [5] = test system: patients with OA of the knee and/or hip; assay: ISS rates of DA and AA above and below cut-offs for change in alkaline phosphatase at 16 weeks
# Source text: To explore this possibility, three different cut-offs at 16 weeks were chosen (10, 15 and 20 U/L change from baseline) and the rate of DA above and below each cut-off was examined (FIG. 6). Of note, the standard deviation for change in alkaline phosphatase in the placebo arm is 12.9 at 8 weeks and 12.7 at 16 weeks.
# alkaline phosphatase [6] = settings: cited from earlier work
# [7] = test system: patients with OA of the knee and/or hip; assay: Integrated summary of efficacy (ISE): change in WOMAC pain subscale score at 16 weeks by joint subgroup; type: in vivo, human; settings: 1Q4 and 1Q8 regimens; all joint subgroups; 95% confidence intervals excluded zero only for the 1-2 and 3-4 joint subgroups
# Source text: The integrated summary of efficacy (ISE) examined the change in WOMAC pain subscale score at 16 weeks in each of the above subgroups and is illustrated in the Forrest plot below (FIG. 4).
# [8] = FACT OA1, Week 16, fasinumab 1 mg Q4W, naproxen 2 × 500 mg/day
# [9] = FACT OA2, Week 24, fasinumab 1 mg Q4W, diclofenac 2 × 75 mg/day or celecoxib 200 mg/d
# [10] = FACT OA2, Week 24, fasinumab 1 mg Q4W, nominal p < 0.0001
substance,measurement,setting,value
Fasinumab: fully-human high-affinity monoclonal antibody directed against NGF; HCVR/LCVR SEQ ID NOs: 2/10,co-primary endpoints: pain and physical function (WOMAC score) compared to placebo,[1],significantly reduced pain and improved physical function (WOMAC score) compared to placebo
same,"WOMAC pain, change from baseline",[2]; [8],−39%
same,"WOMAC pain, change from baseline (score, in brackets)",[2]; [8],(−2.48)
same,"WOMAC physical function, change from baseline",[2]; [8],−39%
same,"WOMAC physical function, change from baseline (score, in brackets)",[2]; [8],(−2.41)
same,"WOMAC physical function, difference vs. placebo","[2]; FACT OA1, Week 16, fasinumab 1 mg Q4W, p = 0.0001",−0.67
same,"WOMAC pain, difference vs. placebo","[2]; FACT OA1, Week 16, fasinumab 1 mg Q4W, p = 0.0003",−0.66
same,"WOMAC physical function, difference vs. naproxen","[2]; FACT OA1, Week 16, fasinumab 1 mg/month vs naproxen 2 × 500 mg/day, nominal p = 0.0006",−0.41
same,"WOMAC pain, difference vs. naproxen","[2]; FACT OA1, Week 16, fasinumab 1 mg/month vs naproxen 2 × 500 mg/day, nominal p = 0.0050",−0.35
same,co-primary endpoints: pain and physical function compared to placebo,"[2]; FACT OA1, fasinumab 1 mg Q4W, p<0.01 for all endpoints",significantly reduced pain and improved physical function compared to placebo
same,mean change from baseline in alkaline phosphatase,alkaline phosphatase [3],20 U/L
same,"WOMAC pain, change from baseline",[4]; [9],−42%
same,"WOMAC pain, change from baseline (score, in brackets)",[4]; [9],(−2.79)
same,"WOMAC physical function, change from baseline",[4]; [9],−39%
same,"WOMAC physical function, change from baseline (score, in brackets)",[4]; [9],(−2.63)
same,"WOMAC pain, difference vs. placebo",[4]; [10],−0.79
same,"WOMAC physical function, difference vs. placebo",[4]; [10],−0.82
same,"WOMAC physical function, difference vs. diclofenac/celecoxib","[4]; FACT OA2, Week 24, fasinumab 1 mg/month, nominal p = 0.0152",−0.36
same,"WOMAC pain, difference vs. diclofenac/celecoxib","[4]; FACT OA2, Week 24, fasinumab 1 mg/month, nominal p = 0.0503",−0.30
same,co-primary endpoints: pain and physical function compared to placebo,"[4]; FACT OA2, fasinumab 1 mg Q4W, p<0.01 for all endpoints",significantly reduced pain and improved physical function compared to placebo
same,"odds ratios of DA, change in alkaline phosphatase above vs below cut-off","[5]; cut-offs 10, 15, 20 U/L at 16 weeks, 1Q4 and 1Q8",6 to 25
same,"odds ratios of AA, change in alkaline phosphatase above vs below cut-off","[5]; cut-offs at 16 weeks, all 95% confidence intervals excluding 1",1.5 to 2.5
same,mean increase in alkaline phosphatase following initiation of therapy,alkaline phosphatase [6]; depending upon dose,5 to 10 U/L
same,time of peak of the mean increase in alkaline phosphatase,alkaline phosphatase [6]; following initiation of therapy,approximately 16 weeks
same,change in WOMAC pain subscale score at 16 weeks compared with placebo,[7],numerically greater improvement compared with placebo
